Test results published in paper PMC8481536, “Wells–Dawson phosphotungstates as mushroom tyrosinase inhibitors: a speciation study” (Scientific Reports, 2021).
Like-named read-outs stand apart in the source and are kept apart here. Marks after values point to notes of the source that are not given here.

Molecular target: T1, AbPPO4 (Agaricus bisporus, UniProt C7FF05, S179N/V121A)
T1 construct: GST (glutathione-S-transferase) (N, cleaved yes); made in house; host or cells: E. coli BL21(DE3)
Format: biochemical
Set-up: α · Ki: unit not given here
Settings: for Inhibition type / α (inhibition parameter) from the Lineweaver–Burk intercepts / Ki / α (inhibition parameter) from activity plot: 50 mM Na-citrate pH 6.8; for Inhibition type: L-DOPA substrate; for α · Ki: from Lineweaver-Burk ordinate intercepts vs [I], [S] 0.4-[…] (Table S5); for α (inhibition parameter) from activity plot: hyperbolic fit
Experimental: AbPPO4 was purified and activated according to Pretzler et al.[15]. […] The diphenolase activity of tyrosinase was monitored using 1 mM L-DOPA (Fig. S1A) as the substrate. Considering that the Wells–Dawson POT stability is pH and possibly time dependent, a speciation study was performed which is detailed in the paragraph "Speciation of Wells–Dawson POT by ^183W-NMR and ^31P-NMR analyses at pH 6.8". The concentration of the investigated Wells–Dawson phosphotungstates was in the range between 0 and 5 mM. If enzymatic inhibition was observed, data were taken in triplicates and fitted with a hyperbolic function (cf. SI Eq. (5)) from a mixed inhibition model to evaluate the Ki and α-parameters. […] (Fig. S1B) was additionally tested and evaluated applying exactly the same mathematical model.
The type of enzymatic inhibition is usually investigated by linear plots according to Lineweaver–Burk, also allowing for further validation of the inhibitory constant Ki.[9] […] The slopes (SI Eq. (13), insets in Figs. S14–S17) and ordinate intercepts of these regression lines were further evaluated to validate the inhibitory constant Ki and the α-parameter from the non-linear regression procedure. […] Similarly, the Lineweaver–Burk ordinate intercepts were evaluated for the α-parameter (cf. Table S5 and Table 1).
UV–VIS measurements were carried out on a Shimadzu UV 2401PC following the specific absorption of dopachrome at 475 nm (ε = 3700 M^−1 cm^−1[7]). For all measurements, 50 mM Na-citrate at pH 6.8 was used as the buffer agent to ensure physiological conditions. The stock solutions of POTs were prepared on the day of measurements and used within 3 days.
For a general 1 mL reaction setup in a polystyrene cuvette, 1 µg/mL AbPPO4 (~ 23 nM) was used to catalyze the reaction. The relative inhibition was investigated using 1 mM L-DOPA as the substrate and applying an inhibitor concentration range from 0 to 5 mM to obtain activity curves. For the Lineweaver–Burk plots, a L-DOPA concentration range of 0.4–1.5 mM was assayed for three different POT concentrations, respectively. […]
is the enzymatic reaction velocity, the maximal enzymatic velocity of the enzyme, the concentration for the half-maximal velocity and the substrate concentration. If enzyme inhibition is taken into account, apparent values (e.g., , , ) are employed. For all inhibition mechanisms the apparent maximal velocity is given by and the apparent Michalis-Menten constant is Equations (3) and (2) are inserted into equation (1). To obtain the relative inhibition (in %), is divided by the uninhibited enzymatic velocity .
Herein, [I] refers to the inhibitor concentration, Ki is the inhibition constant measuring the […]
The three ideal inhibition types are reflected by three limiting conditions for α, with α as quotient of the inhibition constant of the uncompetitive and competitive inhibition:
(A) 0 < α <<1: uncompetitive inhibition
(B) α = 1: non-competitive inhibition
(C) α >> 1: competitive inhibition […]
uncompetitive and non-competitive inhibition modes.
The concentration of L-DOPA was kept constant at 1 mM for all experiments.
The final hyperbolic equation (5) was used for the curve

[1] = L-DOPA 0.4-[…], three inhibitor concentrations, read-out: Ki (inhibition constant) from the Lineweaver–Burk slopes
[2] = hyperbolic fit of mixed inhibition model, 1 mM L-DOPA, 0-5 mM inhibitor, read-out: Ki (inhibition constant) from activity plot

T1 sequence (C7FF05 1-383 V121A/S179N): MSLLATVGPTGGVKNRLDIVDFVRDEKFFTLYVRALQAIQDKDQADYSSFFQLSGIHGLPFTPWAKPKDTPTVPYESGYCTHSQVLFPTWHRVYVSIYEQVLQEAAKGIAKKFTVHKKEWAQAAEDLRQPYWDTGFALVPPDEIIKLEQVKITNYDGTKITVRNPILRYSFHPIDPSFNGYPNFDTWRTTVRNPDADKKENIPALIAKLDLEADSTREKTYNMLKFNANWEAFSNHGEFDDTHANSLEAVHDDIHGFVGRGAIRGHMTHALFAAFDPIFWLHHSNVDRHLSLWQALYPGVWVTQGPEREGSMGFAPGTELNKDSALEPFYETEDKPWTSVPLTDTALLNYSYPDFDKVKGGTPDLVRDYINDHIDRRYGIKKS

(NH4)12[H2P^V2W^VI12O48]·24H2O [[P2W12]^12−]
Inhibition type: mixed-type inhibition | α (inhibition parameter) from the Lineweaver–Burk intercepts (L-DOPA 0.4-[…]): 0.28 | Ki [1]: 5.6 mM | α · Ki: 1.58 | Ki [2]: 7.5 mM | α (inhibition parameter) from activity plot (1 mM L-DOPA): 0.017

K6[α/β-P^V2W^VI18O62]·14H2O [[P2W18]^6−]
Inhibition type: mixed-type inhibition | α (inhibition parameter) from the Lineweaver–Burk intercepts (L-DOPA 0.4-[…]): 0.22 | Ki [1]: 13 mM | α · Ki: 2.85 | Ki [2]: 9.7 mM | α (inhibition parameter) from activity plot (1 mM L-DOPA): 0.013

K10[α2-P^V2W^VI17O61]·20H2O [[P2W17]^10−]
Inhibition type: mixed-type inhibition | α (inhibition parameter) from the Lineweaver–Burk intercepts (L-DOPA 0.4-[…]): 0.01^a, 0.01^b | Ki [1]: 10.6 mM | α · Ki: 0.10 | Ki [2]: 6.5 mM | α (inhibition parameter) from activity plot (1 mM L-DOPA): 0.01^a, 0.01^b

K12[P^V2W^VI15O56]·24H2O [[P2W15]^12−]
Inhibition type: mixed-type inhibition | α (inhibition parameter) from the Lineweaver–Burk intercepts (L-DOPA 0.4-[…]): 0.20 | Ki [1]: 10.7 mM | α · Ki: 2.14 | Ki [2]: 13.6 mM | α (inhibition parameter) from activity plot (1 mM L-DOPA): 0.003
